In one test the target is T1, 5-HT1A receptors (Rattus norvegicus, UniProt P19327).
T1 construct: Hippocampal tissue from the brains of male Sprague-Dawley rats; from tissue; host or cells: rat hippocampus membranes
T1 sequence (P19327 1-422): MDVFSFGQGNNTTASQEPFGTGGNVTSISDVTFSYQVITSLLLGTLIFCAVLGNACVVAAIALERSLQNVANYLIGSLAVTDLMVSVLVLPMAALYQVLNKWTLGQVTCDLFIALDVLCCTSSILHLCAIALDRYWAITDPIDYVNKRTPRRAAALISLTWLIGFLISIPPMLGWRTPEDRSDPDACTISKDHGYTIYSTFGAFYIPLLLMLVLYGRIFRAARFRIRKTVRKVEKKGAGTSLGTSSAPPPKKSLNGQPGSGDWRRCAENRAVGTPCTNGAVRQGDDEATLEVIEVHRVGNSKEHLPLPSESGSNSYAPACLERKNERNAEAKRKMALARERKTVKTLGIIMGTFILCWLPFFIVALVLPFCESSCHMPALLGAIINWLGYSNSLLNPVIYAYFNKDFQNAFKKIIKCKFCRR
In words: inhibition of [3H]8-OH-DPAT binding to 5-HT1A receptors in rat hippocampal tissue. Particulars: rat hippocampus; for Ki: [3H]8-OH-DPAT 2 nM, 25° C., 30 min; for inhibition at 1 µM: at 10^-6 M, [3H]8-OH-DPAT, read-out: % displacement of radio ligand, 5-HT1A. The gist of the method: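 Male Sprague-Dawley rat hippocampal membranes in 50 mM Tris-HCl, pH 7.7, with 4 mM CaCl2, 0.1% ascorbate and 10 µM pargyline were incubated 30 min at 25 °C with [3H]8-OH-DPAT (2 nM as added), then filtered. Compounds were screened at 10^-6 M (as added). Curves were run for those giving ≥50% displacement, and IC50 was converted to Ki using ligand concentration and KD.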

The target of another test is α1-adrenoceptors. Put plainly: inhibition of [7-methoxy-3H]prazosin binding to α1-adrenoceptors in rat whole cortical tissue. The following applies: rat whole cortex, 30 min; for Ki: [7-methoxy-3H]prazosin 0.1 nM, 30° C.; for % displacement of radio ligand, α1: at 10^-6 M, [7-methoxy-3H]prazosin, 1 µM. The method, boiled down:
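Male CD rat cortical membranes (5 mg wet tissue/tube) in 50 mM Tris-HCl pH 7.6 incubated 30 min at 30 °C with [3H]prazosin (0.1 nM as added); phentolamine 5 μM defined non-specific binding. Compounds screened at 10^-6 M; ≥50% displacers titrated 10^-11–10^-3 M. Filter-bound counts gave IC50, converted to Ki via ligand concentration and KD.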

Broadly, the Ki is the equilibrium dissociation constant of an inhibitor or competing ligand from its target. The low end stands for a stronger hold on the target, the high end for a looser hold on the target. `COc1cccc2c1OC(CN1CCC(CNC(=O)c3cccnc3N)CC1)CO2` (stereo not drawn) [Example 11, 2-amino-N-{[1-(8-methoxy-1,4-benzodioxan-2-ylmethyl)-4-piperidyl]methyl}pyridine-3-carboxamide]: the inhibition constant (Ki) came to 19 nM on 5-HT1A receptors and 18 nM at α1-adrenoceptors.
For `COc1ccc2c(c1)O[C@@H](CN1CCC(CNC(=O)c3cccnc3N)CC1)CO2` [Example 7, (S)-2-amino-N{[1-(7-methoxy-1,4-benzodioxan-2-ylmethyl)-4-piperidyl]methyl}-pyridine-3-carboxamide], the Ki at 5-HT1A receptors is 38 nM; on α1-adrenoceptors, 104 nM.
On to `Nc1ccsc1C(=O)NCC1CCN(C[C@H]2COc3ccc(Cl)cc3O2)CC1` [Example 17, (S)-3-amino-N-{[1-(7-chloro-1,4-benzodioxan-2-ylmethyl)-4-piperidyl]methyl}thiophene-2-carboxamide], for which the results for the Ki at 5-HT1A receptors and at α1-adrenoceptors were 32 nM and 70 nM, respectively.
For the compound `Nc1ncccc1C(=O)NCC1CCN(C[C@H]2COc3ccc(Cl)cc3O2)CC1` [Example 1, (S)-(-)-2-amino-N-{[1-(7-chloro-1,4-benzodioxan-2-ylmethyl)-4-piperidyl]methyl}pyridine-3-carboxamide], on 5-HT1A receptors, the affinity corresponds to a Ki of 41.5 nM. Further, the “% displacement of radio ligand, α1” value with α1-adrenoceptors is 89%.
For the compound `Cc1ccc(C(=O)NCC2CCN(C[C@H]3COc4ccc(Cl)cc4O3)CC2)c(N)n1` [Example 14, (S)-2-amino-N-{[1-(7-chloro-1,4-benzodioxan-2-ylmethyl)-4-piperidyl]methyl}-6-methylpyridine-3-carboxamide], the Ki was found to be 26 nM on 5-HT1A receptors and 75 nM on α1-adrenoceptors.
For `O=C(NCC1CCN(C[C@H]2COc3ccc(Cl)cc3O2)CC1)c1ccccn1` [Example 12, (S)-N-{[1-(7-chloro-1,4-benzodioxan-2-ylmethyl)-4-piperidyl]methyl}pyridine-2-carboxamide] the same measures were 16 nM and 132 nM.
For `O=C(NCC1CCN(C[C@H]2COc3ccc(Cl)cc3O2)CC1)c1cccc2cccnc12` [Example 23, (S)-N-{[1-(7-chloro-1,4-benzodioxan-2-ylmethyl)-4-piperidyl]methyl}quinoline-8-carboxamide], in that order: 70 nM and 44 nM.
For `Nc1ccsc1C(=O)NCC1CCN(CC2COc3ccccc3O2)CC1` (stereo not drawn) [Example 16, 3-amino-N-{[1-(1,4-benzodioxan-2-ylmethyl)-4-piperidyl]methyl}thiophene-2-carboxamide], in that order: 63 nM and 2 nM.
Take `Nc1ncccc1C(=O)NCC1CCN(C[C@H]2COc3cccc(F)c3O2)CC1` [Example 3, (S)-(-)-2-amino-N-{[1-(8-fluoro-1,4-benzodioxan-2-ylmethyl)-4-piperidyl]methyl}pyridine-3-carboxamide]: the inhibition constant (Ki) amounted to 18 nM at 5-HT1A receptors and 5.3 nM at α1-adrenoceptors.
For `Nc1ncccc1C(=O)NCC1CCN(C[C@H]2COc3cccc(C(F)(F)F)c3O2)CC1` [Example 20, (S)-2-amino-N-{[1-(8-trifluoromethyl-1,4-benzodioxan-2-ylmethyl)-4-piperidyl]methyl}pyridine-3-carboxamide] the same measures were 41 nM and 4 nM.
Turning to `Nc1ncccc1C(=O)NCC1CCN(C[C@H]2COc3cccc(Cl)c3O2)CC1` [Example 2, (S)-2-amino-N-{[1-(8-chloro-1,4-benzodioxan-2-ylmethyl)-4-piperidyl]methyl}-pyridine-3-carboxamide], the inhibition at 1 µM at 5-HT1A receptors was found to be 97%. Moreover, the “% displacement of radio ligand, α1” value with α1-adrenoceptors is 100%.
Regarding `Nc1ncccc1C(=O)NCC1CCN(CC2COc3ccc(F)cc3O2)CC1` (stereo not drawn) [Example 10, 2-amino-N-{[1-(7-fluoro-1,4-benzodioxan-2-ylmethyl)-4-piperidyl]methyl}pyridine-3-carboxamide], the Ki at 5-HT1A receptors worked out at 57 nM; on α1-adrenoceptors it was 140 nM.
Take `O=C(NCC1CCN(C[C@H]2COc3ccc(Cl)cc3O2)CC1)c1cccnc1` [Example 22, (S)-N-{[1-(7-chloro-1,4-benzodioxan-2-ylmethyl)-4-piperidyl]methyl}pyridine-3-carboxamide]: the Ki on 5-HT1A receptors amounted to 35 nM; on α1-adrenoceptors, 172 nM.
In the case of `Nc1ncccc1C(=O)NCC1CCN(CC2COc3ccccc3O2)CC1` (stereo not drawn) [Example 4, 2-amino-N-{[1-(1,4-benzodioxan-2-ylmethyl)-4-piperidyl]methyl}pyridine-3-carboxamide], the inhibition at 1 µM on 5-HT1A receptors stood at 90%. Moreover, the “% displacement of radio ligand, α1” value with α1-adrenoceptors is on record as 89%.
As to `Cc1ncccc1C(=O)NCC1CCN(C[C@H]2COc3cccc(Cl)c3O2)CC1` [Example 9, (S)-N-{[1-(8-chloro-1,4-benzodioxan-2-ylmethyl)-4-piperidyl]methyl}-2-methylpyridine-3-carboxamide], the Ki is 54 nM at 5-HT1A receptors and 20 nM at α1-adrenoceptors.
For the compound `Cc1ccc2c(c1)O[C@@H](CN1CCC(CNC(=O)c3cccnc3N)CC1)CO2` [Example 5, (S)-2-amino-N-{[1-(7-methyl-1,4-benzodioxan-2-ylmethyl)-4-piperidyl]methyl}pyridine-3-carboxamide], the Ki on 5-HT1A receptors is 94 nM; at α1-adrenoceptors, 65 nM.
Take `Cc1cccc2c1O[C@@H](CN1CCC(CNC(=O)c3cccnc3N)CC1)CO2` [Example 13, (S)-2-amino-N-{[1-(8-methyl-1,4-benzodioxan-2-ylmethyl)-4-piperidyl]methyl}pyridine-3-carboxamide]: the values for the Ki on 5-HT1A receptors and at α1-adrenoceptors were 38 nM and 10 nM, respectively.
For `O=C(NCC1CCN(CC2COc3ccccc3O2)CC1)c1ccccn1` (stereo not drawn) [Example 6, N-{[1-(1,4-benzodioxan-2-ylmethyl)-4-piperidyl]methyl}pyridine-2-carboxamide], in that order: 27 nM and 21 nM.
For `Cc1ncccc1C(=O)NCC1CCN(C[C@H]2COc3ccc(Cl)cc3O2)CC1` [Example 18, (S)-N-{[1-(7-chloro-1,4-benzodioxan-2-ylmethyl)-4-piperidyl]methyl}-2-methylpyridine-3-carboxamide] the same measures were 83 nM and 298 nM.
For `Nc1ncccc1C(=O)NCC1CCN(C[C@H]2COc3ccccc3O2)CC1` [Example 15, (S)-2-amino-N-{[1-(1,4-benzodioxan-2-ylmethyl)-4-piperidyl]methyl}pyridine-3-carboxamide] the same measures were 40.8 nM and 17 nM.
For the compound `O=C(NCC1CCN(CC2COc3ccccc3O2)CC1)c1cccc2cccnc12` (stereo not drawn) [Example 8, N-{[1-(1,4-benzodioxan-2-ylmethyl)-4-piperidyl]methyl}quinoline-8-carboxamide], the Ki on 5-HT1A receptors was found to be 12 nM; on α1-adrenoceptors it was 8 nM.

These data come from patent US5935973A, “Heterocyclcarboxamide derivatives and their use as therapeutic agents” (Knoll Aktiengesellschaft, priority 1995, dated 1999).
